pEC50: −log10 of the molar value.
Experiments:
ABCB1 transporter [1] = molecular target: T1, ABCB1 transporter (Homo sapiens, UniProt P08183)
ABCB1 transporter [2] = molecular target: T1, ABCB1 transporter; assay: ATPase stimulation assay (ABCB1 expressed in High Five insect cells); supported by [3H]-paclitaxel accumulation and efflux in SW620/Ad300 cells; assay type: biochemical
ABCG2 transporter = molecular target: T2, ABCG2 transporter (Homo sapiens, UniProt Q9UNQ0); assay: ATPase stimulation assay (ABCG2 expressed in High Five insect cells); supported by [3H]-mitoxantrone accumulation and efflux in S1-M1-80 cells; assay type: biochemical
T2 sequence (Q9UNQ0 1-655): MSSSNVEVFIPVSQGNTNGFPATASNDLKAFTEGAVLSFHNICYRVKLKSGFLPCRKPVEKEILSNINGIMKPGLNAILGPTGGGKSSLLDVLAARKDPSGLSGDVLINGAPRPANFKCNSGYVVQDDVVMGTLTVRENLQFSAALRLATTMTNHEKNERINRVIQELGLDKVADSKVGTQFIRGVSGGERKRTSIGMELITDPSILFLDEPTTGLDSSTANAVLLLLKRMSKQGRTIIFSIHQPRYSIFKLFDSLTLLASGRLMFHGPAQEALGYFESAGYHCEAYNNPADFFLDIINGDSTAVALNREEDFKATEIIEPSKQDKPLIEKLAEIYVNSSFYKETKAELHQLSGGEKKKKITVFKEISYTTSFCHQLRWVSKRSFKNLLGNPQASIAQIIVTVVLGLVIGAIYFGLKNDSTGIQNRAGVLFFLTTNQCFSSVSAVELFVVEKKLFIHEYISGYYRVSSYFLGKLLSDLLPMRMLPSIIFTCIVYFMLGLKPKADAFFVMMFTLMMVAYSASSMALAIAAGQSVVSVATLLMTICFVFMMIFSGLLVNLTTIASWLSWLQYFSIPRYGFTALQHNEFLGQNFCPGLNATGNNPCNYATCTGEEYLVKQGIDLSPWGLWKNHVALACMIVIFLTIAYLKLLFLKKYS

T1 sequence (P08183 whole entry): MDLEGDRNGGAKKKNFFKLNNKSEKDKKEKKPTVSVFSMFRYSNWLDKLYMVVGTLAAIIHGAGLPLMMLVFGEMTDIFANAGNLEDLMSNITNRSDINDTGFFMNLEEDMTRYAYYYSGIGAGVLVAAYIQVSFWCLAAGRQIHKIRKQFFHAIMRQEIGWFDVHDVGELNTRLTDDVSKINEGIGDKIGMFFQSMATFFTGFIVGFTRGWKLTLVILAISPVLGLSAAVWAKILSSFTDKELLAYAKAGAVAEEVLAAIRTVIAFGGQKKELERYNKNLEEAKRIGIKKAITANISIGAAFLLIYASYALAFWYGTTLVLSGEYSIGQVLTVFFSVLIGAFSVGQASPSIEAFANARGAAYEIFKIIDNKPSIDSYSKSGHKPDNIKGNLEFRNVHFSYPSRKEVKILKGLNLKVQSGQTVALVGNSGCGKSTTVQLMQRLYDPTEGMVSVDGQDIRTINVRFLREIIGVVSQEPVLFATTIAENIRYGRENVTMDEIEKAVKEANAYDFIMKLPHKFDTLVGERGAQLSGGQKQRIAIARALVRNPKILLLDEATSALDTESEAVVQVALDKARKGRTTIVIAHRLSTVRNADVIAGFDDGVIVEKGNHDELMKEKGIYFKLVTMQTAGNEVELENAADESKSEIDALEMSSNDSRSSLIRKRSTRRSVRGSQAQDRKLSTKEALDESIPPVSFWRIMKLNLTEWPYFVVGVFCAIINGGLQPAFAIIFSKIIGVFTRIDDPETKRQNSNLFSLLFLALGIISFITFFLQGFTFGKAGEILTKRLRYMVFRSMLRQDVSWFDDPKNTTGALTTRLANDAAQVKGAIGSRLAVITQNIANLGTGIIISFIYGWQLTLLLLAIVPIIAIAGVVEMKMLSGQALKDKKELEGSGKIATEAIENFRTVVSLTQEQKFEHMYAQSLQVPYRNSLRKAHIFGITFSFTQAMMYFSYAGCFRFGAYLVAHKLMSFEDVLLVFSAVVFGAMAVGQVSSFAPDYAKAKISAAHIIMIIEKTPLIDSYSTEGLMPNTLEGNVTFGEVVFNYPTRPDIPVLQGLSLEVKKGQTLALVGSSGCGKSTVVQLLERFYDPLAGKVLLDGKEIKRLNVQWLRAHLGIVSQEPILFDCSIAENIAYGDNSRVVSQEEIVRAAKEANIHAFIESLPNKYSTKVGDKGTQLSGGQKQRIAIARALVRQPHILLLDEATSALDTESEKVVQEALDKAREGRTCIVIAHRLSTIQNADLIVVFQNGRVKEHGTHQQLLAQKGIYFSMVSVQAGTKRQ

| Compound | radiolabelled substrate accumulation and efflux in SW620/Ad300 vs SW620 cells (ABCB1 transporter [1]) | pEC50 (ABCB1 transporter [2]) | pEC50 (ABCG2 transporter) |
| --- | --- | --- | --- |
| CC(=O)O[C@H]1C(=O)[C@@]2(C)[C@H]([C@H](OC(=O)c3ccccc3)[C@]3(O)C[C@H](OC(=O)[C@H](O)[C@@H](NC(=O)c4ccccc4)c4ccccc4)C(C)=C1C3(C)C)[C@]1(OC(C)=O)CO[C@@H]1C[C@@H]2O [paclitaxel] | overexpression of the ABCB1 transporter increases the efflux of the substrate, [^3H]-paclitaxel |  |  |
| C=CC(=O)N1CCC(Oc2cc3c(Nc4ccc(Cl)c(Cl)c4F)ncnc3cc2OC)CC1 [poziotinib] |  | 7.70 | 6.68 |

From publication PMC7694178, “Poziotinib Inhibits the Efflux Activity of the ABCB1 and ABCG2 Transporters and the Expression of the ABCG2 Transporter Protein in Multidrug Resistant Colon Cancer Cells” (Cancers, 2020)
